What all share (assay type): in vivo
The test system of data set [1] is Rice Leaf Beetle (Oulema oryzae). Kind of data set: Test (root dipping) for controlling rice leaf beetle. The following applies: 4 days after treatment; for mortality at 1.6 ppm: root dipping of rice seedlings, late instar larvae released after 2 days. As to the method: Ten sampled rice seedlings held with urethane in a glass cylinder having an inner diameter of 4.5 cm and a length of 14 cm were set up in a plastic cup containing 40 mL of chemical solution diluted to a desired concentration. After 2 days, 4 larvae of rice leaf beetle in the late instar larva were released in the glass cylinder. The glass cylinder was covered with a lid of medicine paper and kept in a chamber at a constant temperature of 25° C. for rearing.

For data set [2], the system named is Brown Planthopper (Nilaparvata lugens). Put plainly: Test (foliar dipping) for controlling brown planthopper. The following applies: 120 h, rice seedlings dipped, 5 days after treatment; for mortality at 200 ppm: third instar larvae. As to the method:
[…] After air-drying, the rice seedlings held with urethane in a glass cylinder having an inner diameter of 4.5 cm and a length of 14 cm were set up in a plastic cup containing 40 mL of water. Larvae of brown planthoppers in the third instar larva were released there. The cylinder was covered with a lid of medicine paper and kept in a chamber at a constant temperature of 25° C. for rearing.

Data set [3] concerns Diamondback Moth (Plutella xylostella). Kind of data set: Test (foliar dipping) for controlling diamondback moth. The conditions noted are these: 72 h, foliar dipping of cabbage leaf, third instar larvae, 3 days after treatment. The procedure:
A cabbage leaf cut to a diameter of 5.0 cm was dipped in the diluent of the test compounds diluted to 200 ppm in an amount of 20 mL and air-dried. After air-drying, the cabbage leaf was placed in a plastic cup, and 10 larvae of diamondback moths in the third instar larva were released there. The cup was covered with a lid and kept in a chamber at a constant temperature of 25° C. for rearing.

Data set [4] deals with Inedorooimushi (Oulema oryzae). Put plainly: Test (pot test) for controlling inedorooimushi. The conditions noted are these: larvae released 20 days after treatment, 2 days after release; for mortality at 500 g/ha: 500 g/ha as wettable powder at rice roots. As to the method: The roots of five sampled rice seedlings were washed with water. The wettable powder prepared in accordance with Formulation Example 2 described above was wrapped in the roots to be planted in a Wagner pot of 1/10000 a. After 20 days from the treatment, 3 larvae of inedorooimushi in the late instar larva were released per strain and reared in a plastic greenhouse with a room temperature set at 25° C. On 2 days after the releasing of the insects, the mortality of the insect was calculated.

Data set [5] relates to Cotton Aphid (Aphis gossypii). Kind of data set: Test (foliar spraying) for controlling cotton aphid. The following applies: 120 h, 5 days after treatment; for mortality at 200 ppm: foliar spraying on cucumber leaf. The procedure:
A cucumber leaf cut to a diameter of 3.5 cm was placed on cotton wool moistened with water. Two adult cotton aphids were released there for offspring for 24 hours and the adult insects were then removed. […] After air-drying, the sample with cotton wool was placed in a plastic cup, which was covered with a lid and kept in a chamber at a constant temperature of 25° C. for rearing.

Data set [6] deals with Brown Planthopper (Nilaparvata lugens). Kind of data set: Residual effect test (field experiment) for brown planthopper. The procedure:
The roots of five sampled rice seedlings were washed with water. Subsequently, 25 mg of the wettable powder prepared in accordance with Formulation Example 2 described above was wrapped in the roots. Each strain was made from the five seedlings. In outdoor artificial paddy fields made from wooden frames having a size of 60 cm by 90 cm, 10 strains were planted, respectively. The artificial paddy field was shielded by an insect screen with a mesh size of 1 mm, so that invasion of harmful insects from the outside was prevented. Into the test system, 40 to 100 adult brown planthoppers were released at fixed intervals so as to cause damage to the rice. On 16 to 51 days after the treatment, the numbers of surviving insects and dead insects were measured to calculate the density index. The density index was obtained from the following expression.

The test system of data set [7] is Southern Yellow thrips (Thrips palmi). Put plainly: Test (foliar spraying) for controlling southern yellow thrips. The conditions noted are these: 3 days after treatment; for mortality at 200 ppm: 72 h, foliar spraying on cucumber leaf, first instar larvae; for Mortality of Thrips palmi (%): foliar spraying. As to the method:
A cucumber leaf cut to a diameter of 1.5 cm was placed on cotton wool moistened with water. […] After air-drying, 5 larvae of southern yellow thrips in the first instar larva were released there. The sample with cotton wool was placed in a plastic cup, which was covered with a lid and kept in a chamber at a constant temperature of 25° C. for rearing.

For data set [8], the system named is Rice Stem Borer (Chilo suppressalis). Put plainly: Test (pot test) for controlling rice stem borer. The conditions noted are these: 14 days after treatment; for Browning stem ratio (%): 500 g/ha as wettable powder (Formulation Example 2) at rice roots, hatchlings released after 4 days; for Ratio to untreated (%): browning stem ratio relative to untreated, 500 g/ha. The procedure: The roots of five sampled rice seedlings were washed with water. The wettable powder prepared in accordance with Formulation Example 2 described above was wrapped in the roots to be planted in a Wagner pot of 1/10000 a. After 4 days from the treatment, a total of […] of rice stem borer were released per strain and reared in a plastic greenhouse with a room temperature set at 25° C. On 14 days after the treatment, the ratio of browning stem of seedlings for each strain and the ratio to untreated ones were calculated. Double system.

Data set [9] has as its system Brown Winged Green Stink Bug (Plautia stali). Put plainly: Test (greenhouse test) for controlling brown winged green stink bug. The following applies: 100 ppm sprayed on apple fruit; for Number of abnormal insects / Number of dead insects / Number of normal insects: 5 adults released 7 days after treatment, triple system, 4 days after release; for Total number of sheaths formed by stylet insertion: fruit stained with fuchsine after examination; for Proportion of abnormal insects and dead insects on 4 days after releasing insects (%): insects released 7 days after treatment. The procedure: Using a commercially available hand spray, a chemical solution diluted to a concentration of 100 ppm was sprayed onto an apple fruit (cultivar: Fuji). After air-drying, the apple fruit was placed in a plastic cup, which was allowed to stand still for a specified number of […] in a plastic greenhouse with a room temperature set at 25° C. and with the natural light shining thereon. On 7 days after the treatment, 5 adult brown winged green stink bugs (without distinction between male and female) were released onto the treated fruit. On 4 days after the release of insects, the numbers of death and abnormality were observed and recorded. Triple system. Also, the fruit after examination was immersed in an acidic 0.5% fuchsine solution for 30 minutes, and then washed with water to measure the total number of sapping scars.

The test system of data set [10] is Brown Planthopper (Nilaparvata lugens). Kind of data set: Test (root dipping) for controlling brown planthopper. The following applies: 120 h, root dipping, 5 days after treatment. The procedure: Ten sampled rice seedlings held with urethane in a glass cylinder having an inner diameter of 4.5 cm and a length of 14 cm were set up in a plastic cup containing 40 mL of chemical solution diluted to a desired concentration. After 2 days, 10 larvae of brown planthoppers in the third instar larva were released in the glass cylinder. The glass cylinder was covered with a lid of medicine paper and kept in a chamber at a constant temperature of 25° C. for rearing.

Where [11] appears, read: After 16 days, 25 mg wettable powder (Formulation Example 2) at roots per strain, outdoor artificial paddy field.
The mark [12] stands for this setting: After 23 days, 25 mg wettable powder at roots per strain, artificial paddy field.
Where [13] appears, read: After 30 days, 25 mg wettable powder at roots per strain, artificial paddy field.
[14] abbreviates: After 37 days, 25 mg wettable powder at roots per strain, artificial paddy field.
Setting [15] is: After 44 days, 25 mg wettable powder at roots per strain, artificial paddy field.
[16] abbreviates: After 51 days, 25 mg wettable powder at roots per strain, artificial paddy field.

The structures appear in SMILES notation. Structures can show the parent of a compound that is named as a salt. Some results are limits rather than exact numbers.

As for `N#CCC[n+]1c([O-])c(-c2cccc(C(F)(F)F)c2)c(=O)n2ccccc21` [Compound 51, 1-(2-cyanoethyl)-2-hydroxy-4-oxo-3-(3-trifluoromethylphenyl)-4H-pyrido[1,2-a]pyrimidinium inner salt], the mortality at 1.6 ppm in data set [1] came to 100%. Besides, the mortality at 0.4 ppm in data set [1] (96 h, 0.4 ppm, root dipping) came to 100%. The mortality at 0.8 ppm is 100% in [1] (96 h, 0.8 ppm, root dipping) and 100% in [5] (0.8 ppm, foliar spraying). The mortality at 200 ppm in [2], in data set [3], in data set [5] and in data set [7] was at least 80% throughout. For the same compound, the mortality at 125 g/ha in data set [4] was determined as 83.3%. In data set [4], the mortality at 250 g/ha stood at 100%. Besides, in data set [4], the mortality at 500 g/ha amounted to 100%. In addition, the mortality at 0.1 ppm in [5] (0.1 ppm, foliar spraying) is 100%. Moreover, the “Density index of Nilaparvata lugens” value in [6] (setting [11]) was found to be 0; in data set [6] (setting [12]) it was 2.6; in [6] (setting [13]), 21.7; in data set [6] (setting [14]), 43.1; in data set [6] (setting [15]), 37.1; in data set [6] (setting [16]), 76.2. The “Browning stem ratio (%)” value in data set [8] was 10%. For the same compound, the “Ratio to untreated (%)” value in data set [8] is 12%. In [9], the “Number of abnormal insects” value was determined as 7. Further, the “Number of dead insects” value in data set [9] stood at 8. In addition, the “Number of normal insects” value in [9] stood at 0. Also, the “Total number of sheaths formed by stylet insertion” value in data set [9] turned out to be 1. Besides, the “Proportion of abnormal insects and dead insects on 4 days after releasing insects (%)” value in [9] is on record as 100%.

Turning to `N#CCC[n+]1c([O-])c(-c2cccc(OC(F)(F)F)c2)c(=O)n2ccccc21` [Compound 57, 1-(2-cyanoethyl)-2-hydroxy-4-oxo-3-(3-trifluoromethoxyphenyl)-4H-pyrido[1,2-a]pyrimidinium inner salt], the mortality at 200 ppm in data set [2], in data set [3], in [5] and in data set [7] was at least 80% throughout. The “Density index of Nilaparvata lugens” value is 0 in data set [6] (setting [11]); 0 in data set [6] (setting [12]); 25.4 in data set [6] (setting [13]); 50.4 in data set [6] (setting [14]); 33.0 in data set [6] (setting [15]); 80.7 in data set [6] (setting [16]). Moreover, in [8], the “Browning stem ratio (%)” value stood at 0%. For the same compound, the “Ratio to untreated (%)” value in data set [8] was 0%.

As to `O=c1c(-c2cccc(C(F)(F)F)c2)c([O-])[n+](Cc2cncnc2)c2ccccn12` [Triflumezopyrim, reference compound], the mortality at 1.6 ppm in data set [1] is 0%. The mortality at 0.1 ppm amounted to 10% in data set [2] (0.1 ppm) and 70% in [10] (0.1 ppm). The mortality at 0.2 ppm in data set [2] (0.2 ppm) is 70%; in data set [10] (0.2 ppm) it was 70%; in data set [5] (0.20 ppm, foliar spraying), 0%. This compound showed a mortality at 0.05 ppm in data set [10] (0.05 ppm) of 0%. The mortality at 0.4 ppm in data set [10] (0.4 ppm) turned out to be 70%. This compound yielded a mortality at 0.8 ppm in data set [10] (0.8 ppm) of 100%. The mortality at 125 g/ha in [4] was found to be 16.7%. Further, the mortality at 250 g/ha in data set [4] was determined as 50%. The mortality at 500 g/ha in data set [4] turned out to be 66.7%. Also, the mortality at 0.39 ppm in [5] (0.39 ppm, foliar spraying) amounted to 60%. The compound also returned a mortality at 0.78 ppm in [5] (0.78 ppm, foliar spraying) of 85%. Moreover, the “Density index of Nilaparvata lugens” value in data set [6] (setting [11]) was determined as 2.5; in data set [6] (setting [12]) it was 5.4; in data set [6] (setting [13]) it was 45.1; in [6] (setting [14]) it was 56.7; in [6] (setting [15]), 63.9; in data set [6] (setting [16]), 92.2. The “Mortality of Thrips palmi (%)” value in data set [7] (12.5 ppm) stood at 0%; in data set [7] (50 ppm), 60%. Besides, the mortality at 200 ppm in data set [7] is 100%. Further, the “Browning stem ratio (%)” value in [8] is on record as 40%. The “Ratio to untreated (%)” value in data set [8] came out at 49%. For the same compound, the “Number of abnormal insects” value in data set [9] was determined as 5. Besides, the “Number of dead insects” value in data set [9] worked out at 4. The “Number of normal insects” value in data set [9] is 6. Moreover, the “Total number of sheaths formed by stylet insertion” value in data set [9] came out at 10. Also, the “Proportion of abnormal insects and dead insects on 4 days after releasing insects (%)” value in data set [9] turned out to be 60.0%.

A word on the mortality: it is the share of the test organisms that died.

These data come from patent US20180310564A1, “Mesoionic Compound” (Nippon Kayaku Kabushiki Kaisha, priority 2015, published 2018).
